{"source": "patent US20190338294A1", "about": "“ORTHOGONAL TRANSCRIPTIONAL SWITCHES DERIVED FROM TET REPRESSOR HOMOLOGS FOR SACCHAROMYCES CEREVISIAE” (The Johns Hopkins University, priority 2016, published 2019)", "key": {"[1]": {"system": "icaTA (=icaR-VP16)", "assay": "IcaR-Off switch candidate, GFP reporter (strain icaG-TA)", "type": "cell-based, Staphylococcus epidermidis", "settings": "Gentamicin 10 mM, On w/o drug"}, "[2]": {"system": "phlTA (=phlF-VP16)", "assay": "DAPG-Off switch, GFP reporter, flow cytometry (strain DapG-TA)", "type": "cell-based, Pseudomonas", "settings": "for GFP fluorescence of DapG-TA: compared with BY4741 (background); for intensity of reporter GFP fluorescence, DAPG-Off switch: SC with 25-μM doxycycline, 25-μM D-camphor, 48-μM DAPG or 150-μM p-cumate"}, "[3]": {"system": "BY4741", "assay": "Effects of DAPG on plating efficiency of BY4741", "type": "cell-based, Saccharomyces cerevisiae", "settings": "2 days", "experimental": "FIG. 2 is a bar graph showing the effects of DAPG on plating efficiency of BY4741. Yeast strain BY4741 overnight culture in SC medium was diluted 25,000-fold, and 100 μl was spread on SC, and SC containing 24-μM or 48 μM of DAPG. The number of colonies formed was counted after 2 days. The values were means and standard deviations calculated from three experiments."}, "[4]": {"target": "T1, cymTA(=NLS-cymR-VP16) (Pseudomonas putida, UniProt O33453)", "T1 construct": "(cymTA in pSIB470); expressed in transfected cells; host or cells: Saccharomyces cerevisiae BY4741, integrated pSIB470 (strain cymG-TA)", "T1 sequence (O33453 other isoform, or with tags, fused parts or gaps)": "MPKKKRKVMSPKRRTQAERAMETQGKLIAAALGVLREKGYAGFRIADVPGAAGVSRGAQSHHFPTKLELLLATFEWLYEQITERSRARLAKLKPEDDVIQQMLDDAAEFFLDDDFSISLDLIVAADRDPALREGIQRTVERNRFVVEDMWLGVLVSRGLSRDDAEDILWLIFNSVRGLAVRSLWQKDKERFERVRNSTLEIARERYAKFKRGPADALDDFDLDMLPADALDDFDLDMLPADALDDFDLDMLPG", "assay": "Cumate-Off switch, GFP reporter (strain cymG-TA)", "type": "cell-based", "settings": "SC with 25-μM doxycycline, 25-μM D-camphor, 48-μM DAPG or 150-μM p-cumate"}, "[5]": {"target": "T2, tTA (=tetR-VP16) (Escherichia coli, UniProt P04483)", "T2 construct": "expressed in transfected cells; host or cells: Saccharomyces cerevisiae BY4742, integrated pSIB527 (strain TetOffG)", "assay": "Tet-Off switch, GFP reporter, orthogonality test", "type": "cell-based", "settings": "SC with 25-μM doxycycline, 25-μM D-camphor, 48-μM DAPG or 150-μM p-cumate"}, "[6]": {"system": "camTA (=camR-VP16-NLS)", "assay": "Camphor-Off switch, GFP reporter, orthogonality test", "type": "cell-based, Pseudomonas putida", "settings": "SC with 25-μM doxycycline, 25-μM D-camphor, 48-μM DAPG or 150-μM p-cumate"}, "[7]": {"system": "BY4741", "settings": "cited from earlier work"}, "[8]": {"system": "phlTA (=phlF-VP16)", "assay": "DAPG-Off system with ADE2 reporter, spot growth on SC-Ade (strain phlA-TA)", "settings": "24 μM DAPG, 2 days at 30° C.", "method": "FIG. 3A-FIG. 3D is a series of photographs showing the evaluation of the DAPG-Off system using the ADE2 gene (CDS) as a reporter. Cells were cultured for 2 days at 30° C. in SC (FIG. 3A), SC-Ade (FIG. 3B), SC with 24 μM of DAPG (FIG. 3C), and SC-Ade with 24-DAPG (FIG. 3D). Cells were diluted 10-fold stepwise across each row.\nA second reporter gene was used to further assess the performance of the DAPG-Off switch. Here, it was examined whether the ADE2 gene under the control of phlPr complements the adenine-auxotrophy of strain BY11204 in a DAPG-dependent manner (FIG. 3A-FIG. 3D)."}, "[9]": {"system": "NLS-PhlF", "assay": "DAPG-On system with ADE2 reporter, spot growth on SC-Ade (strains AphOx-2μPhlF)", "settings": "5 μM DAPG; hardly grew on DAPG-free SC-Ade", "method": "Cells were cultured for 1 day at 30° C. in SC-Leu-His (FIG. 6A), SC-Leu-His-Ade (FIG. 6B), SC-Leu-His with 24-μM DAPG (FIG. 6C), and SC-Leu-His-Ade with 24-μM DAPG (FIG. 6D). The cells were diluted 10-fold stepwise across each row.\nThe performance of the DAPG-On system was assessed using ADE2 as a reporter in the ade2Δ BY11204 strain."}, "[10]": {"system": "lmrTAv2 (=NLS-lmrA-VP16)", "assay": "Lmr-Offv2 switch candidate, GFP reporter (strain lmr/yxaG-lmrTAv2)", "type": "cell-based, Bacillus subtilis", "settings": "Quercetin 0.13 μM, Fisetin 0.19 μM, Coumesterol 0.22 μM, On w/o drug"}, "[11]": {"system": "ethTA(=NLS-ethR-VP16)", "type": "cell-based, Mycobacterium tuberculosis", "settings": "2-Benzyl acetate 0.01%, On w/o drug"}, "[12]": {"system": "varTA (=varR-VP16)", "assay": "Var-Off switch candidate, GFP reporter (strain varG-TA)", "type": "cell-based, Streptomyces virginae", "settings": "Virginiamycin S1 2 mM, On w/o drug"}}, "note": "Like-named read-outs stand apart in the source and are kept apart here.", "data": [{"compound": "Gentamicin", "values": [{"measurement": "Expression of GFP with drug", "setting": "[1]", "result": "On"}, {"measurement": "Expression of GFP with drug", "setting": "[1]; listed as gentamicin", "result": "solid ligand-independent GFP fluorescence"}]}, {"compound": "CC(=O)c1c(O)cc(O)c(C(C)=O)c1O", "note": "[DAPG, 2,4-diacetylphloroglucinol]", "values": [{"measurement": "culture time over which GFP fluorescence reduced to background levels", "setting": "[2]; 48 μM DAPG, strain DapG-TA", "result": 14, "unit": "h"}, {"measurement": "GFP fluorescence of DapG-TA", "setting": "[2]; 12-μM DAPG in SC", "result": "higher than that of the BY4741 control strain"}, {"measurement": "GFP fluorescence of DapG-TA", "setting": "[2]; 48-μM DAPG in SC", "result": "decreased to the same level as BY4741"}, {"measurement": "intensity of reporter GFP fluorescence, DAPG-Off switch", "setting": "[2]", "result": "decreased to the background level"}, {"measurement": "number of colonies formed", "setting": "[3]; SC with 24-μM (5-μg/ml) DAPG vs SC without DAPG", "result": "little difference"}, {"measurement": "number of colonies formed", "setting": "[3]; SC with 48-μM (10-μg/ml) DAPG vs SC without DAPG", "result": "little difference"}, {"measurement": "intensity of reporter GFP fluorescence, Cumate-Off switch", "setting": "[4]", "result": "strong GFP signal"}, {"measurement": "intensity of reporter GFP fluorescence, Tet-Off switch", "setting": "[5]", "result": "lowered GFP fluorescence"}, {"measurement": "intensity of reporter GFP fluorescence, Camphor-Off switch", "setting": "[6]", "result": "lowered GFP fluorescence"}, {"measurement": "growth of BY4741", "setting": "[7]; 10-μg/ml DAPG (Kwak et al., 2011)", "result": "did not inhibit growth"}, {"measurement": "growth of cells of BY4741 background", "setting": "[7]; higher concentrations than 10-μg/ml DAPG (Troppens et al., 2013)", "result": "did show sensitivity"}, {"measurement": "growth of phlA-TA strain on SC-Ade medium", "setting": "[8]", "result": "did not grow"}, {"measurement": "growth of strains AphOx-2μPhlF on SC-Ade medium", "setting": "[9]", "result": "vigorous growth"}]}, {"compound": "O=c1oc2cc(O)ccc2c2oc3cc(O)ccc3c12", "note": "[Coumesterol]", "values": [{"measurement": "Expression of GFP with drug", "setting": "[10]", "result": "On"}]}, {"compound": "CC(=O)OCc1ccccc1", "note": "[2-Benzyl acetate]", "values": [{"measurement": "Expression of GFP with drug", "setting": "[11]", "result": "On"}, {"measurement": "Expression of GFP with drug", "setting": "[11]; listed as 2-benzyl acetate", "result": "solid ligand-independent GFP fluorescence"}]}, {"compound": "O=c1c(O)c(-c2ccc(O)c(O)c2)oc2cc(O)cc(O)c12", "note": "[Quercetin]", "values": [{"measurement": "Expression of GFP with drug", "setting": "[10]", "result": "On"}, {"measurement": "Expression of GFP with drug", "setting": "[10]; listed as quercetin", "result": "not ligand (quercetin)-responsive"}]}, {"compound": "O=c1c(O)c(-c2ccc(O)c(O)c2)oc2cc(O)ccc12", "note": "[Fisetin]", "values": [{"measurement": "Expression of GFP with drug", "setting": "[10]", "result": "On"}]}, {"compound": "D-camphor", "values": [{"measurement": "intensity of reporter GFP fluorescence, DAPG-Off switch", "setting": "[2]", "result": "strong GFP signal"}, {"measurement": "intensity of reporter GFP fluorescence, Cumate-Off switch", "setting": "[4]", "result": "strong GFP signal"}, {"measurement": "intensity of reporter GFP fluorescence, Tet-Off switch", "setting": "[5]", "result": "strong GFP signal"}, {"measurement": "intensity of reporter GFP fluorescence, Camphor-Off switch", "setting": "[6]", "result": "decreased to the background level"}]}, {"compound": "CC[C@H]1NC(=O)[C@@H](NC(=O)c2ncccc2O)[C@@H](C)OC(=O)[C@H](c2ccccc2)NC(=O)[C@@H]2CC(=O)CCN2C(=O)[C@H](Cc2ccccc2)N(C)C(=O)[C@@H]2CCCN2C1=O", "note": "[Virginiamycin S1]", "values": [{"measurement": "Expression of GFP with drug", "setting": "[12]", "result": "On"}, {"measurement": "Expression of GFP with drug", "setting": "[12]; listed as virginiamycin S", "result": "strong GFP expression"}]}]}
